Results taken from patent US20120035265A1, “COMPOSITIONS, METHODS, AND DEVICES FOR THE TREATMENT OF DYSMENORRHEA” (MediciNova, Inc., priority 2010, published 2012).

Tests used:
[1] = tested on: uterine muscle isolated from pregnant rats; assay: Spontaneous contractions of uterine muscle isolated from pregnant rats (organ bath); assay type: cell-based; conditions: pregnant rat uterine muscle, mean ± standard error, 10 samples
Experimental: The experimental operation of this study was as reported by T. Kawarabayashi et al.^1 After each SD-strain rat on Day 21 of pregnancy were exsanguinated to death, the uterus was isolated to prepare up to 8 myometrial strips (about 4 mm×10 mm) in the direction of the longitudinal muscle, with the adhesion to the placenta being avoided.
Each myometrial strip was suspended in an organ bath containing 10 mL of a Locke-Ringer solution at 37° C. (aerated with 95% O2+5% CO2 gas) with a load of about 1.0 g. After the amplitude and frequency of the muscular spontaneous contractions became stable, distilled water was added. Five minutes later, the test, control, or positive control substance was added cumulatively with intervals of 5 minutes. The myometrial contractile force was delivered to a strain pressure amplifier through a force displacement transducer and recorded on a Rectigraph.
Considering the sum of the uterine contraction during 5 minutes after the addition of distilled water as 100%, the response rate to each concentration of the test, control, or positive control substance was calculated from the sum of the uterine contraction after each was added. Variable points (peaks) with amplitude (tension) of 0.2 g or lower were excluded from analysis. Samples showing any of the following events were not used for the study or excluded from analysis.
Microsoft® Excel 2000 (Microsoft Corp.) was used to sum up and analyze data and prepare tables and figures. Using a concentration-response curve obtained for each sample (X axis: log value of the concentration of the drug added, Y axis: response rate), a negative log value (pD2) of the concentration that inhibited the uterine contraction by 50% (EC50) was calculated from a straight line that connects the 2 concentrations above and below 50%, and converted to EC50.

[2] = tested on: uterine activity of anesthetized pregnant rats; assay: Uterine motility of anesthetized pregnant rats (balloon method); assay type: in vivo, rat
Experimental: Rats were anesthetized with urethane, and experiments were conducted based on balloon method. Uterine activity and mean blood pressure of dam were led to a pressure amplifier via a pressure transducer. As for heart rate, pulse waves were led to tachometer. Recti-graphs were used for recording. The test substance, control substance, or positive control substance was administered intravenously and cumulatively every 15 minutes, while doses were increased gradually.

[3] = tested on: uterine muscle isolated from pregnant rats; assay: Interaction of MN-221 and β-adrenoceptor antagonists on spontaneous contraction of uterine muscle isolated from pregnant rats (Schild regression); assay type: cell-based, rat; conditions: Rattus norvegicus
Experimental: The experimental operation of this study was as reported by T. Kawarabayashi et al.^4. After each SD-strain rat on Day 21 of pregnancy was exsanguinated to death, the uterus was isolated to prepare 8 myometrial samples (about 4 mm×10 mm) in the direction of the longitudinal muscle, with the adhesion to the placenta being avoided. Each myometrial sample was suspended with a load of about 1.0 g in an organ bath containing 10 mL of the Locke-Ringer solution at 37° C. […] After the suspended samples became stable for the amplitude and frequency of spontaneous contraction, each antagonist or distilled water was added to the bath to pretreat them for about 15 minutes. […] The contractile force of each sample was outputted through a force displacement transducer to a strain pressure amplifier and recorded with a rectigraph.
Any variable point (peak) with amplitude (tension) of 0.2 g or lower was excluded from analysis. Samples meeting any of the following criteria were rejected or removed from analysis.
Microsoft® Excel 2000 (Microsoft Corp.) was used for summing up or calculating data and preparing figures and tables. […] This EC50 value was used to calculate the concentration ratio (CR) of EC50 when an antagonist was added (for each sample) to that when no antagonist was added (mean value of the whole control group) and the logarithmic value of CR-1 (log [CR-1]).
Then, the added concentration of the antagonist was plotted on the X axis (logarithmic value) and log(CR-1) on the Y axis (Schild plot) to calculate the value of the X-axis intercept (pA2) and slope of the line using linear approximation (Schild regression^5). The slope was statistically compared with a slope of 1 (paired t-test; a probability level of less than 5% was considered significant). […] The mean and standard error were calculated for each data point obtained and indicated to two decimal places (or in 3 significant digit).

[4] = tested on: uterine muscle isolated from pregnant rats; assay: Oxytocin-induced contraction of uterine muscle isolated from pregnant rats; assay type: cell-based, rat; conditions: Rattus norvegicus, contraction induced with 1 mU/mL of oxytocin, mean ± standard error of 10 samples
Experimental: After SD-strain rats on Day 17 of pregnancy were exsanguinated to death, the uterus was isolated to prepare up to 8 myometrial strips (about 4 mm×10 mm) per animal in the direction of the longitudinal muscle while avoiding the adhesion to the placenta. Each strip was suspended in an organ bath containing 10 mL of a modified Locke-Ringer solution at […] (aerated with 95% O2+5% CO2 gas) with a load of about 1.0 g. After the suspended sample became stable for static tension, 5 μg/mL of PG F2α or 1 mU/mL of oxytocin was added to induce contraction. After the sample was allowed to stand for at least 30 minutes to confirm stable rhythmic contraction for frequency and amplitude, the test, control, or positive control substance solution was added cumulatively at intervals of 5 minutes. After the treatment was completed, 1×10^−5 mol/L of forskolin was added to obtain maximal relaxation. The contractile force of the uterine sample was delivered via a force displacement transducer to a strain pressure amplifier and recorded on a Rectigraph.
Considering the sum of the uterine contraction for 5 minutes before treatment as 100%, the response rate to each concentration of the test, control, or positive control substance solution was calculated from the sum of uterine contraction after treatment for both PG F2α and oxytocin induced contraction. Then, the response rates obtained were used to prepare a concentration-response curve for each sample. The maximum relaxation obtained by adding forskolin was considered as a baseline. Variable points (peaks) with amplitude (tension) of […] or lower were excluded from analysis. Samples showing any of the following events were not used for the study or excluded from analysis.
Microsoft® Excel 2000 (Microsoft Corp.) was used to sum up and calculate data and prepare tables and figures. Using a concentration-response curve prepared for each sample (X axis: log value of the concentration of the substance added, Y axis: response rate), a negative log value (pEC50) of the concentration that inhibited the uterine contraction by 50% (EC50) was calculated from a straight line connecting the 2 concentrations just above and below 50%, and then converted to EC50 (unit: mol/L).

[5] = inhibition of uterine motility, anesthetized pregnant rats

- EC50 ([1]; read-out: EC50): 1.01 ± 0.27 nM
- EC50 ([1]; read-out: pD2 (converted)): 0.692 nM
- EC50 ([3]; MN-221, control group (treated with distilled water), read-out: EC50): 0.843 ± 0.221 nM
- EC50 ([3]; MN-221, control group (treated with distilled water), read-out: pD2 (converted)): 0.676 nM
- EC50 ([3]; MN-221 after pretreatment with CGP 20712A 1 × 10^−8 mol/L, read-out: EC50): 0.868 ± 0.15 nM
- EC50 ([3]; MN-221 after pretreatment with CGP 20712A 1 × 10^−8 mol/L, read-out: pD2 (converted)): 0.692 nM
- EC50 ([3]; MN-221 after pretreatment with CGP 20712A 1 × 10^−9 mol/L, read-out: EC50): 1.25 ± 0.148 nM
- EC50 ([3]; MN-221 after pretreatment with CGP 20712A 1 × 10^−9 mol/L, read-out: pD2 (converted)): 1.15 nM
- EC50 ([3]; MN-221 after pretreatment with CGP 20712A 3 × 10^−9 mol/L, read-out: EC50): 1.05 ± 0.278 nM
- EC50 ([3]; MN-221 after pretreatment with CGP 20712A 3 × 10^−9 mol/L, read-out: pD2 (converted)): 0.692 nM
- EC50 ([3]; MN-221 after pretreatment with ICI 118,551 1 × 10^−8 mol/L, read-out: EC50): 23.1 ± 6.39 nM
- EC50 ([3]; MN-221 after pretreatment with ICI 118,551 1 × 10^−8 mol/L, read-out: pD2 (converted)): 16.6 nM
- EC50 ([3]; MN-221 after pretreatment with ICI 118,551 3 × 10^−8 mol/L, read-out: EC50): 50.9 ± 12.7 nM
- EC50 ([3]; MN-221 after pretreatment with ICI 118,551 3 × 10^−8 mol/L, read-out: pD2 (converted)): 28.8 nM
- EC50 ([3]; MN-221 after pretreatment with ICI 118,551 3 × 10^−9 mol/L, read-out: EC50): 4.6 ± 1.26 nM
- EC50 ([3]; MN-221 after pretreatment with ICI 118,551 3 × 10^−9 mol/L, read-out: pD2 (converted)): 2.95 nM
- EC50 ([3]; MN-221 after pretreatment with SR 59230A 1 × 10^−8 mol/L, read-out: EC50): 1.54 ± 1.08 nM
- EC50 ([3]; MN-221 after pretreatment with SR 59230A 1 × 10^−8 mol/L, read-out: pD2 (converted)): 0.447 nM
- EC50 ([3]; MN-221 after pretreatment with SR 59230A 3 × 10^−8 mol/L, read-out: EC50): 1.79 ± 0.499 nM
- EC50 ([3]; MN-221 after pretreatment with SR 59230A 3 × 10^−8 mol/L, read-out: pD2 (converted)): 1.07 nM
- EC50 ([3]; MN-221 after pretreatment with SR 59230A 3 × 10^−9 mol/L, read-out: EC50): 1.24 ± 0.338 nM
- EC50 ([3]; MN-221 after pretreatment with SR 59230A 3 × 10^−9 mol/L, read-out: pD2 (converted)): 0.955 nM
- EC50 ([4]; read-out: EC50): 2.25 ± 0.44 nM
- EC50 ([4]; read-out: pEC50 (converted)): 1.86 nM
SMILES: CN(C)C(=O)COc1ccc2c(c1)C[C@@H](NC[C@H](O)c1ccc(O)c(CCO)c1)CC2 [MN-221, (−)-bis(2-{[(2S)-2-({(2R)-2-hydroxy-2-[4-hydroxy-3-(2-hydroxyethyl)phenyl]ethyl}amino)-1,2,3,4-tetrahydronaphthalen-7-yl]oxy}-N,N-dimethyl-acetamide) monosulfate]
- inhibition of uterine motility ([2]; anesthetized pregnant rats, intravenous cumulative dosing): inhibited uterine motility dose-dependently
- potency relative to HSR-81 [2, 5]: approximately 4 times
- potency relative to ritodrine [2, 5]: approximately 400 times
- potency relative to terbutaline [2, 5]: approximately 5.5 times
- ED30 values ([2]; uterine motility, intravenous cumulative dosing every 15 minutes, urethane-anesthetized pregnant rats): 0.13 µg/kg/min
